The source of these data is article PMC8834866, “2-Acetamido-2-deoxy-D-glucono-1,5-lactone Sulfonylhydrazones: Synthesis and Evaluation as Inhibitors of Human OGA and HexB Enzymes” (International Journal of Molecular Sciences, 2022).

One may read the Ki as the dissociation constant of the complex between target and ligand, obtained from inhibition or displacement. As usually defined, the melting point is the temperature, or range, at which the solid turns liquid.

For series [1], the target named is OGA. The note with it: cited from earlier work.
The target in series [2] is T1, hOGA (Homo sapiens, UniProt O60502).
T1 construct: The gene construct encoding the full-length human OGA fused to N-terminal His6-tag; His6 (N); made in house
T1 sequence (O60502 1-916): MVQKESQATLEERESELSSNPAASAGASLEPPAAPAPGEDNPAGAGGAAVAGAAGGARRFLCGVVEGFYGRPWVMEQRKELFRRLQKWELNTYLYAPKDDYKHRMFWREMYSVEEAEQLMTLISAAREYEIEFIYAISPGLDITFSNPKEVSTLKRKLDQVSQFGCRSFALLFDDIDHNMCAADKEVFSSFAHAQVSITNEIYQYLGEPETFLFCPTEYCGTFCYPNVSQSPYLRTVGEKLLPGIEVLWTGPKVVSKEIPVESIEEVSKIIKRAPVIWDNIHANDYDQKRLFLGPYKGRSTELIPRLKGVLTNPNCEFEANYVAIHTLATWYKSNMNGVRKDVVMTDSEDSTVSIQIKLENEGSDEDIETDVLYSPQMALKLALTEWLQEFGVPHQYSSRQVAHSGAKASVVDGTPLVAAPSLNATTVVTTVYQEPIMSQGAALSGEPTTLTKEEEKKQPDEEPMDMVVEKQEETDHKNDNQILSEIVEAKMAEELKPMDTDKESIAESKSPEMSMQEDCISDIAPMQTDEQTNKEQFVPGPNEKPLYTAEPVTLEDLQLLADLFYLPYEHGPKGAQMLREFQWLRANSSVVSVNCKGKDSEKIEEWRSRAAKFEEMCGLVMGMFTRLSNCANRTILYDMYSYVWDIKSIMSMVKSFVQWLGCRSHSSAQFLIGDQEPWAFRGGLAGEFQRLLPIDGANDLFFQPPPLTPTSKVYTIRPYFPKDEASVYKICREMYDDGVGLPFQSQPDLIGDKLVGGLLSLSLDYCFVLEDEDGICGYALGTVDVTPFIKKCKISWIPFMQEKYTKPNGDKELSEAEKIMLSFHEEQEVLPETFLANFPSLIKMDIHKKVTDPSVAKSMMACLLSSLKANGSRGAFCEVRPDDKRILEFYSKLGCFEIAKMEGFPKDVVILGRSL
As to the kind of experiment: hOGA inhibition, 4-MU-GlcNAc fluorescent substrate, Dixon plots (competitive model). The format is biochemical. The note with it: for Ki(hHexB)/Ki(hOGA): ratio defines selectivity towards hOGA; for Ki: recombinant hOGA, 4-MU-GlcNAc, pH 7.5, 37 °C. The method, then: (§1) The inhibitory potency of compounds 5a–f was evaluated against recombinant hOGA and hHexB enzymes. The enzymes were prepared and purified as described previously. For inhibition of hOGA, fluorescent 4-MU-GlcNAc was used as the substrate. […] In the case of inhibition of hHexB, Michaelis–Menten kinetics were evaluated using pNP-GlcNAc as a colorimetric substrate. Inhibition constants (Ki) were determined by nonlinear regression analyses by employing the competitive inhibition model (cf. the Experimental section and Supplementary Materials).
(§2) The detailed protocol for the expression of hOGA and the subsequent purification procedure of the recombinant protein have been described in our previous work. The gene construct encoding the full-length human OGA fused to N-terminal His6-tag was kindly provided by Prof. D. Vocadlo (SFU, Burnaby, BC, Canada). Human β-N-acetylhexosaminidase B (hHexB) was expressed in Pichia pastoris, and the extracellularly produced enzyme was isolated according to the procedure described by Krejzová et al..
The inhibitory potency of compounds 5a–f was evaluated against recombinant enzymes hOGA and hHexB. In the case of hOGA inhibition, 4-MU-GlcNAc was used as a substrate at three concentrations (7 µM, 12 µM, and 25 µM) in the reaction mixtures containing 50 mM potassium phosphate buffer (pH 7.5), an inhibitor 5a–f in a final concentration of 0 to 750 nM, and 3 nM hOGA. In all cases, the enzyme and the inhibitors were preincubated at 37 °C, then the reaction was initiated by the addition of the substrate. All reactions were carried out in a fluorescence cuvette (Hellma Analytics, Müllheim, Germany), held in the thermostat cell holder of a Jasco FP-8200 fluorescence spectrophotometer (Easton, MD, USA) equipped with a Xe lamp light source. The excitation of the reactions was performed at […] and emission was detected at […] every 10 s for 10 min. All measurements were performed in triplicates. Initial velocities were determined and the reciprocal of initial velocities was plotted against inhibitor concentrations. The inhibitory mode of the compounds on hOGA was assessed by the Cornish–Bowden method, which involves the plotting of [S]/v0 vs. inhibitor concentrations. […] Inhibition constants (Ki) were determined according to the competitive model of the Dixon method by plotting the reciprocal of initial velocities vs. inhibitor concentrations. The intersection point of the linearly fitted lines gave Ki in nM.

For series [3], the target named is HexA/B. Set-up: method as in PMID 34186233. The note with it: enzyme contains two predominant isozymes, Hex A and Hex B; cited from earlier work.
Series [4] deals with T2, hHexB (Homo sapiens, UniProt P07686).
T2 construct: made in house; host or cells: Pichia pastoris
T2 sequence (P07686 122-556): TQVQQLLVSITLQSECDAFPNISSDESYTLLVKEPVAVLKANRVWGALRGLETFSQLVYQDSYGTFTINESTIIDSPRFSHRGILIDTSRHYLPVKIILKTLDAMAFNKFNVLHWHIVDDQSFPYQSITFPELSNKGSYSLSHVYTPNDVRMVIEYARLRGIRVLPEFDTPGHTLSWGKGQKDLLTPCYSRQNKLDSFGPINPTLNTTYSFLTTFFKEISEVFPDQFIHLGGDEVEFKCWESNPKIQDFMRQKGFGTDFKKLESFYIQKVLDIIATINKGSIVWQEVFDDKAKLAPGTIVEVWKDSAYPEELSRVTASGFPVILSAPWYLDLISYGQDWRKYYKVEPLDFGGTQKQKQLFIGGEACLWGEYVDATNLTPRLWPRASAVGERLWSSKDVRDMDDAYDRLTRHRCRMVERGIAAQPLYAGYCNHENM
As to the kind of experiment: hHexB inhibition, pNP-GlcNAc colorimetric substrate, Michaelis–Menten kinetics. In kind it is biochemical. The settings on record: recombinant hHexB, pH 5.0, 35 °C. As to the method: as §1, §2
In the case of hHexB inhibition, Michaelis–Menten kinetics were evaluated using pNP-GlcNAc as a substrate. The kinetic reactions took place in Eppendorf tubes in a final volume of 400 μL containing 24 nM HexB, pNP-GlcNAc substrate in the range of 0.1–3 mM, and various inhibitor concentrations ranging from 0 to 300 nM in 50 mM citrate-phosphate buffer, pH 5.0. The reactions were incubated at 35 °C and then 50 μL samples were taken every 60 s. Samples were mixed with a quenching solution of 150 μL 0.1 M Na2CO3 and the absorbance of the solutions was measured at 420 nm by a Tecan Sunrise plate reader (Männedorf, Switzerland). All measurements were performed in triplicates. Initial velocities were determined from the data points by linear fit, and then nonlinear regression analyses were performed using the competitive inhibition model to calculate Ki values. GraphPad Prism software was used for the calculations.

Series [5] has as its target HexB. The settings on record: cited from earlier work.

Several values for one entry are separate records, joined by “and”; a condition that tells them apart may be missing. Equal entries are not always repeated.

Consider `CC(=O)N[C@H]1C(=NNC(=O)Nc2ccc3ccccc3c2)O[C@H](CO)[C@@H](O)[C@@H]1O` [2-acetamido-2-deoxy-D-glucono-1,5-lactone 4-(2-naphthyl)-semicarbazone], for which the results for the inhibition constant Ki in series [1] and in series [3] were 36 nM and 47 nM, respectively. Also, the “Ki(hHexB)/Ki(hOGA)” value in series [2] amounted to 1.3.

Turning to `CC(=O)N[C@H]1C(=NNS(=O)(=O)c2ccc(C)cc2)O[C@H](CO)[C@@H](O)[C@@H]1O` [5a, 2-Acetamido-2-deoxy-D-glucono-1,5-lactone p-Toluenesulfonylhydrazone], the melting point fell in the range of 165 to 166 °C. Also, in series [4], the inhibitory constant (Ki) came out at 21 ± 2 nM. Further, in series [2], the “Ki(hHexB)/Ki(hOGA)” value is reported as 0.27 and the inhibitory constant (Ki) came to 78 ± 1 nM.

On to `CC(=O)N[C@H]1C(=NNS(=O)(=O)c2ccc(C(F)(F)F)cc2)O[C@H](CO)[C@@H](O)[C@@H]1O` [5b, 2-Acetamido-2-deoxy-D-glucono-1,5-lactone p-Trifluoromethylbenzenesulfonylhydrazone], for which the melting point was 175 to 176 °C (dec.). Moreover, in series [4], the inhibitory constant (Ki) came out at 48 ± 4 nM. In series [2], the “Ki(hHexB)/Ki(hOGA)” value turned out to be 0.21 and the Ki stood at 230 ± 17 nM.

Turning to `CC(=O)N[C@H]1C(=NNS(=O)(=O)c2ccc(F)cc2)O[C@H](CO)[C@@H](O)[C@@H]1O` [5c, 2-Acetamido-2-deoxy-D-glucono-1,5-lactone p-Fluorobenzenesulfonylhydrazone], the melting point lay within 175 to 177 °C. The Ki in series [4] amounted to 45 ± 3 nM. Moreover, the inhibition constant Ki in series [2] is 95 ± 11 nM.

Turning to `CC(=O)N[C@H]1C(=NNS(=O)(=O)c2ccc(Cl)cc2)O[C@H](CO)[C@@H](O)[C@@H]1O` [5d, 2-Acetamido-2-deoxy-D-glucono-1,5-lactone p-Chlorobenzenesulfonylhydrazone], the melting point is 180 to 182 °C (dec.). Further, the inhibition constant Ki in series [4] was 39 ± 2 nM. Moreover, in series [2], the “Ki(hHexB)/Ki(hOGA)” value turned out to be 0.56 and the Ki was found to be 70 ± 3 nM.

As to `CC(=O)N[C@H]1C(=NNS(=O)(=O)c2ccc3ccccc3c2)O[C@H](CO)[C@@H](O)[C@@H]1O` [5e, 2-Acetamido-2-deoxy-D-glucono-1,5-lactone 2-Naphthalenesulfonylhydrazone], the melting point fell in the range of 172 to 173 °C. For the same compound, the Ki in series [4] worked out at 30 ± 3 nM. Further, in series [2], the “Ki(hHexB)/Ki(hOGA)” value was found to be 1; the inhibition constant Ki is ~30 nM and 30 nM.

In the case of `CC(=O)N[C@H]1/C(=N/NS(=O)(=O)c2cccc3ccccc23)O[C@H](CO)[C@@H](O)[C@@H]1O` [5f, 2-Acetamido-2-deoxy-D-glucono-1,5-lactone 1-Naphthalenesulfonylhydrazone], the melting point was in the range of 145 to 147 °C. Besides, the Ki in series [4] stood at 6.8 ± 1.8 nM. Moreover, in series [2], the “Ki(hHexB)/Ki(hOGA)” value is 0.25 and the Ki was determined as 27 ± 7 nM.

Consider `CC(=O)N[C@H]1/C(=N/OC(=O)Nc2ccc(Br)cc2)O[C@H](CO)[C@@H](O)[C@@H]1O` [I (4-Br-C6H4-)], for which the inhibition constant Ki in series [1] is 56 nM; in series [5], 47 nM.

On to `CC(=O)N[C@H]1/C(=N/OC(=O)Nc2ccc(C)cc2)O[C@H](CO)[C@@H](O)[C@@H]1O` [I (4-Me-C6H4-)], for which the figures for the inhibition constant Ki in series [1] and in series [5] were 28 nM and 21 nM, respectively.

In the case of `CC(=O)N[C@H]1/C(=N/NC(=O)Nc2ccc(Cl)cc2)O[C@H](CO)[C@@H](O)[C@@H]1O` [II (4-Cl-C6H4-)], the Ki was 83 nM in series [1] and 170 nM in series [3].

On to `CC(=O)N[C@H]1/C(=N/NC(=O)Nc2ccc(C)cc2)O[C@H](CO)[C@@H](O)[C@@H]1O` [II (4-Me-C6H4-)], for which the inhibition constant (Ki) in series [1] is 155 nM; in series [3] it was 332 nM.

Turning to `CC(=O)N[C@H]1/C(=N/NC(=O)Nc2ccccc2)O[C@H](CO)[C@@H](O)[C@@H]1O` [II (Ph)], the values for the inhibitory constant (Ki) in series [1] and in series [3] were 190 nM and 205 nM, respectively.

Take `CC(=O)N[C@H]1/C(=N/OC(=O)Nc2ccccc2)O[C@H](CO)[C@@H](O)[C@@H]1O` [PUGNAc]: the inhibition constant (Ki) in series [1] was 46 nM; in series [5], 36 nM. In series [2], the “Ki(hHexB)/Ki(hOGA)” value came out at 0.8.
